Patent publication US11752138B2 (VANDERBILT UNIVERSITY, priority 2020, dated 2023)

target: Human LDHA (Homo sapiens (Human), UniProt P00338); experiment: human LDHA primary biochemical assay (Example 1); settings: biochemical LDHA inhibitory activity, assay of Example 1
Excerpt: This example describes a human LDHA primary biochemical assay employed in the characterization of a compound of Formula I in an embodiment of the dislcosure.
Test compounds were placed in a Greiner Bio-One (Monroe, N.C.) 1536-well black solid bottom assay plate. 200 millimolar (mM) Tris HCl, pH 7.4, 100 micromolar (μM) EDTA and 0.01% TWEEN-20™, final concentration, was used as the assay buffer. The LDHA reagent was 2 nanomolar (nM) Human LDHA (Meridian Life Science, Inc., Memphis, Tenn.), final concentration, in assay buffer. The substrate reagent was 0.06 mM NADH and 0.2 mM sodium pyruvate, final concentration, in assay buffer. The resazurin/diaphorase coupling reagent was 0.037 mM resazurin and 0.133 milligrams per milliliter (mg/mL) diaphorase, final concentration, in assay buffer. The inhibition of LDHA activity was measured by fluorescence emission. […]

Row | IC50 [nM] | SMILES
1 | < 100 | NS(=O)(=O)c1ccc(Cc2c(-c3ccc(F)c(-c4ccc5c(c4)CCCC5)c3)nn(-c3nc(C(=O)O)cs3)c2CC2CC2)cc1F [Compound 143, 2-(5-(cyclopropylmethyl)-3-(4-fluoro-3-(5,6,7,8-tetrahydronaphthalen-2-yl)phenyl)-4-(3-fluoro-4-sulfamoylbenzyl)-1H-pyrazol-1-yl)thiazole-4-carboxylic acid]
2 | < 100 | NS(=O)(=O)c1ccc(Cc2c(-c3ccc(F)c(C4=CCCCC4)c3)nn(-c3nc(C(=O)O)cs3)c2CC2CC2)cc1F [Compound 146, 2-(5-(cyclopropylmethyl)-3-(6-fluoro-2′,3′,4′,5′-tetrahydro-[1,1′-biphenyl]-3-yl)-4-(3-fluoro-4-sulfamoylbenzyl)-1H-pyrazol-1-yl)thiazole-4-carboxylic acid]
3 | < 100 | NS(=O)(=O)c1ccc(Cc2c(-c3ccc(F)c(-c4cccc(Cl)c4)c3)nn(-c3nc(C(=O)O)cs3)c2CC2CC2)cc1F [Compound 149, 2-(3-(3′-chloro-6-fluoro-[1,1′-biphenyl]-3-yl)-5-(cyclopropylmethyl)-4-(3-fluoro-4-sulfamoylbenzyl)-1H-pyrazol-1-yl)thiazole-4-carboxylic acid]
4 | < 100 | N[S+](=O)([O-])c1ccc(Cc2c(-c3ccc(F)c(C(=O)N4CCCC4)c3)nn(-c3nc(C(=O)O)cs3)c2CC2CC2)cc1F [Compound 154]
5 | < 100 | NS(=O)(=O)c1ccc(Cc2c(-c3ccc(F)c(-c4ccc5c(c4)CCC5)c3)nn(-c3nc(C(=O)O)cs3)c2CC2CC2)cc1F [Compound 155, 2-(5-(cyclopropylmethyl)-3-(3-(2,3-dihydro-1H-inden-5-yl)-4-fluorophenyl)-4-(3-fluoro-4-sulfamoylbenzyl)-1H-pyrazol-1-yl)thiazole-4-carboxylic acid]
6 | < 100 | NS(=O)(=O)c1ccc(Cc2c(-c3cccc(-c4ccc(C5CC5)cc4)c3)nn(-c3nc(C(=O)O)cs3)c2CC2CC2)cc1F [Compound 183, 2-(3-(4′-cyclopropyl-[1,1′-biphenyl]-3-yl)-5-(cyclopropylmethyl)-4-(3-fluoro-4-sulfamoylbenzyl)-1H-pyrazol-1-yl)thiazole-4-carboxylic acid]
7 | < 100 | CC(C)(C)NC(=O)c1cccc(-c2nn(-c3nc(C(=O)O)cs3)c(CC3CC3)c2Cc2ccc([S+](N)(=O)[O-])cc2)c1 [Compound 188, 2-(3-(3-(tert-butylcarbamoyl)phenyl)-5-(cyclopropylmethyl)-4-(4-sulfamoylbenzyl)-1H-pyrazol-1-yl)thiazole-4-carboxylic acid]
8 | < 100 | COc1ccc(-c2cc(-c3nn(-c4nc(C(=O)O)cs4)c(CC4CC4)c3Cc3ccc(S(N)(=O)=O)c(F)c3)ccc2F)cc1Cl [Compound 191, 2-(3-(3′-chloro-6-fluoro-4′-methoxy-[1,1′-biphenyl]-3-yl)-5-(cyclopropylmethyl)-4-(3-fluoro-4-sulfamoylbenzyl)-1H-pyrazol-1-yl)thiazole-4-carboxylic acid]
9 | < 100 | CN(C)c1cccc(-c2cc(-c3nn(-c4nc(C(=O)O)cs4)c(CC4CC4)c3Cc3ccc(S(N)(=O)=O)c(F)c3)ccc2F)c1 [Compound 194, 2-(5-(cyclopropylmethyl)-3-(3′-(dimethylamino)-6-fluoro-[1,1′-biphenyl]-3-yl)-4-(3-fluoro-4-sulfamoylbenzyl)-1H-pyrazol-1-yl)thiazole-4-carboxylic acid]
10 | < 100 | NS(=O)(=O)c1ccc(Cc2c(-c3ccc(F)c(C4=CCCO4)c3)nn(-c3nc(C(=O)O)cs3)c2CC2CC2)cc1F [Compound 197, 2-(5-(cyclopropylmethyl)-3-(3-(4,5-dihydrofuran-2-yl)-4-fluorophenyl)-4-(3-fluoro-4-sulfamoylbenzyl)-1H-pyrazol-1-yl)thiazole-4-carboxylic acid]
11 | < 100 | N#Cc1cccc(-c2cc(-c3nn(-c4nc(C(=O)O)cs4)c(CC4CC4)c3Cc3ccc(S(N)(=O)=O)c(F)c3)ccc2F)c1 [Compound 200, 2-(3-(3′-cyano-6-fluoro-[1,1′-biphenyl]-3-yl)-5-(cyclopropylmethyl)-4-(3-fluoro-4-sulfamoylbenzyl)-1H-pyrazol-1-yl)thiazole-4-carboxylic acid]

The next lines start with the compound.

Row | SMILES | IC50 [nM]
12 | CC(C)c1ccc(-c2cc(-c3nn(-c4nc(C(=O)O)cs4)c(CC4CC4)c3Cc3ccc(S(N)(=O)=O)c(F)c3)ccc2F)cc1 [Compound 142, 2-(5-(cyclopropylmethyl)-3-(6-fluoro-4′-isopropyl-[1,1′-biphenyl]-3-yl)-4-(3-fluoro-4-sulfamoylbenzyl)-1H-pyrazol-1-yl)thiazole-4-carboxylic acid] | 100 to 1000
13 | NS(=O)(=O)c1ccc(Cc2c(-c3ccc(F)c(-c4ccc(Cl)c(F)c4)c3)nn(-c3nc(C(=O)O)cs3)c2CC2CC2)cc1F [Compound 144, 2-(3-(4′-chloro-3′,6-difluoro-[1,1′-biphenyl]-3-yl)-5-(cyclopropylmethyl)-4-(3-fluoro-4-sulfamoylbenzyl)-1H-pyrazol-1-yl)thiazole-4-carboxylic acid] | < 100
14 | NS(=O)(=O)c1ccc(Cc2c(-c3cccc(C(=O)N4CCCC4)c3)nn(-c3nc(C(=O)O)cs3)c2CC2CC2)cc1 [Compound 145, 2-(5-(cyclopropylmethyl)-3-(3-(pyrrolidine-1-carbonyl)phenyl)-4-(4-sulfamoylbenzyl)-1H-pyrazol-1-yl)thiazole-4-carboxylic acid] | < 100
15 | CC(C)(C)NC(=O)c1cc(-c2nn(-c3nc(C(=O)O)cs3)c(CC3CC3)c2Cc2ccc([S+](N)(=O)[O-])c(F)c2)ccc1F [Compound 147, 2-(3-(3-(tert-butylcarbamoyl)-4-fluorophenyl)-5-(cyclopropylmethyl)-4-(3-fluoro-4-sulfamoylbenzyl)-1H-pyrazol-1-yl) thiazole-4-carboxylic acid] | < 100
16 | NS(=O)(=O)c1ccc(Cc2c(-c3ccc(F)c(-c4nc5ccccc5[nH]4)c3)nn(-c3nc(C(=O)O)cs3)c2CC2CC2)cc1F [Compound 160, 2-(3-(3-(1H-benzo[d]imidazol-2-yl)-4-fluorophenyl)-5-(cyclopropylmethyl)-4-(3-fluoro-4-sulfamoylbenzyl)-1H-pyrazol-1-yl)thiazole-4-carboxylic acid] | < 100
17 | NS(=O)(=O)c1ccc(Cc2c(-c3cccc(-c4nc5ccccc5[nH]4)c3)nn(-c3nc(C(=O)O)cs3)c2CC2CC2)cc1F [Compound 189, 2-(3-(3-(1H-benzo[d]imidazol-2-yl)phenyl)-5-(cyclopropylmethyl)-4-(3-fluoro-4-sulfamoylbenzyl)-1H-pyrazol-1-yl)thiazole-4-carboxylic acid] | < 100
18 | Cc1cc(-c2cc(-c3nn(-c4nc(C(=O)O)cs4)c(CC4CC4)c3Cc3ccc(S(N)(=O)=O)c(F)c3)ccc2F)ccc1F [Compound 195, 2-(5-(cyclopropylmethyl)-3-(4′,6-difluoro-3′-methyl-[1,1′-biphenyl]-3-yl)-4-(3-fluoro-4-sulfamoylbenzyl)-1H-pyrazol-1-yl)thiazole-4-carboxylic acid] | < 100
19 | Cc1ccc(-c2cccc(-c3nn(-c4nc(C(=O)O)cs4)c(CC4CC4)c3Cc3ccc(S(N)(=O)=O)c(F)c3)c2)cc1 [Compound 198, 2-(5-(cyclopropylmethyl)-4-(3-fluoro-4-sulfamoylbenzyl)-3-(4′-methyl-[1,1′-biphenyl]-3-yl)-1H-pyrazol-1-yl)thiazole-4-carboxylic acid] | < 100
